The record followed here is US9730445B2, “Herbicidal compositions comprising 4-amino-3-chloro-5-fluoro-6-(4-chloro-2-fluoro-3-methoxyphenyl) pyridine-2-carboxylic acid or a derivative thereof and fungicides” (DOW AGROSCIENCES LLC, priority 2013, dated 2017).

Several values for one entry are separate records, joined by “and”; a condition that tells them apart may be missing. Equal entries are not always repeated.

For assay [1], the system named is ECHOR. In words: Postemergence foliar-applied weed control, direct-seeded rice (greenhouse). Format: in vivo, Echinochloa oryzoides (Ard.) Fritsch (early watergrass). The following applies: r78-80 ester 8/16/32 g ae/ha alone, r81-83 difenoconazole 50/100/200 g ai/ha alone, r84-92 ester 8/16/32 at each of 50, 100, 200. The protocol:
Seeds or nutlets of the desired test plant species were planted in a soil matrix prepared by mixing aloam or sandy loam soil (e.g., 28.6 percent silt, 18.8 percent clay, and 52.6 percent sand, with a pH of about 5.8 and an organic matter content of about 1.8 percent) and calcareous grit in an 80 to 20 ratio. The soil matrix was contained in plastic pots with a volume of 1 quart and a surface area of 83.6 square centimeters (cm^2). […] The plants were grown for 8-22 days in a greenhouse with an approximate 14 hour (h) photoperiod which was maintained at about 29° C. during the day and 26° C. during the night. Nutrients (Peters Excel® 15-5-15 5-Ca 2-Mg and iron chelate) were applied in the irrigation solution as needed and water was added on a regular basis. Supplemental lighting was provided with overhead metal halide 1000-Watt lamps as necessary. The plants were employed for testing when they reached the first through fourth true leaf stage.
Treatments consisted of the acid or esters of 4-amino-3-chloro-5-fluoro-6-(4-chloro-2-fluoro-3-methoxy-phenyl)pyridine-2-carboxylic acid (Compound A), each formulated as an SC (suspension concentrate), and various fungicidal components alone and in combination. Forms of compound A were applied on an acid equivalent basis.
For treatments comprised of formulated compounds, measured amounts of compounds were placed individually in 25 mL glass vials and diluted in a volume of 1.25% volume per volume (v/v) Agri-Dex® crop oil concentrate to obtain 12× stock solutions. […]
The treated plants and control plants were placed in a greenhouse as described above and watered by sub-irrigation to prevent wash-off of the test compounds. After approximately 3 weeks, the condition of the test plants as compared with that of the untreated plants was determined visually and scored on a scale of 0 to 100 percent where 0 corresponds to no injury or growth inhibition and 100 corresponds to complete kill. […]

In assay [2] the test system is LEFCH. Nature of the assay: In-water applied weed control, transplanted paddy rice (greenhouse). It is filed as in vivo, Leptochloa chinensis (L.) Nees (Chinese sprangletop). The method, then: Weed seeds or nutlets of the desired test plant species were planted in puddled soil (mud) prepared by mixing a shredded, non-sterilized mineral soil (50.5 percent silt, 25.5 percent clay, and 24 percent sand, with a pH of about 7.6 and an organic matter content of about 2.9 percent) and water at a 1:1 volumetric ratio. The prepared mud was dispensed in 365 mL aliquots into 16-ounce (oz.) non-perforated plastic pots with a surface area of 86.59 square centimeters (cm^2) leaving a headspace of 3 centimeters (cm) in each pot. Rice seeds were planted in Sun Gro MetroMix® 306 planting mixture, which typically has a pH of 6.0 to 6.8 and an organic matter content of about 30 percent, in plastic plug trays. Seedlings at the second or third leaf stage of growth were transplanted into 860 mL of mud contained in 32-oz. non-perforated plastic pots with a surface area of 86.59 cm^2 4 days prior to herbicide application. The paddy was created by filling the headspace of the pots with 2.5 to 3 cm of water. When required to ensure good germination and healthy plants, a fungicide treatment and/or other chemical or physical treatment was applied. The plants were grown for 4-22 days in a greenhouse with an approximate 14 hour (h) photoperiod which was maintained at about 29° C. during the day and about 26° C. during the night. Nutrients were added as Osmocote® (17:6:10, N:P:K+minor nutrients) at 2 g per cup. Water was added on a regular basis to maintain the paddy flood, and supplemental lighting was provided with overhead metal halide 1000-Watt lamps as necessary. The plants were employed for testing when they reached the first through fourth true leaf stage. […]
Treatment requirements for each compound or fungicidal component were calculated based upon the rates being tested, the concentration of active ingredient or acid equivalent in the formulation, an application volume of 2 mL per component per pot, and an application area of 86.59 cm^2 per pot.
For formulated compounds, a measured amount was placed in an individual 100 or 200 mL glass vial and was dissolved in a volume of 1.25% (v/v) Agri-Dex® crop oil concentrate to obtain application solutions. […]
The treated plants and control plants were placed in a greenhouse as described above and water was added as needed to maintain a paddy flood. After approximately 3 weeks the condition of the test plants as compared with that of the untreated plants was determined visually and scored on a scale of 0 to 100 percent where 0 corresponds to no injury or growth inhibition and 100 corresponds to complete kill. […]

Turning to `COc1c(Cl)ccc(-c2nc(C(=O)OCc3ccccc3)c(Cl)c(N)c2F)c1F` [Compound A Benzyl Ester], the “Visual Weed Control (%) - 21 DAA ECHOR Obs” value in assay [1] was 45% and 43% and 70%. Besides, the figures for the “Visual Weed Control (%) - 19 DAA LEFCH Obs” value in assay [2] (Compound A Benzyl Ester 8 g ae/ha) and in assay [2] (Compound A Benzyl Ester 16 g ae/ha) were 3% and 8%, respectively.
